The source of these data is patent publication US20090099187A1, “Novel 8-Sulfonyl-3 Aminosubstituted Chroman or Tetrahydronaphtalene Derivatives Modulating the 5HT6 Receptor” (AstraZeneca AB, priority 2005, published 2009).

This experiment deals with rat striatal 5HT6 receptors (Rattus norvegicus, UniProt P31388).

Usually Ki stands for the dissociation constant of the complex between target and ligand, obtained from inhibition or displacement.

rat striatal 5HT6 receptors, sequence (P31388 whole entry): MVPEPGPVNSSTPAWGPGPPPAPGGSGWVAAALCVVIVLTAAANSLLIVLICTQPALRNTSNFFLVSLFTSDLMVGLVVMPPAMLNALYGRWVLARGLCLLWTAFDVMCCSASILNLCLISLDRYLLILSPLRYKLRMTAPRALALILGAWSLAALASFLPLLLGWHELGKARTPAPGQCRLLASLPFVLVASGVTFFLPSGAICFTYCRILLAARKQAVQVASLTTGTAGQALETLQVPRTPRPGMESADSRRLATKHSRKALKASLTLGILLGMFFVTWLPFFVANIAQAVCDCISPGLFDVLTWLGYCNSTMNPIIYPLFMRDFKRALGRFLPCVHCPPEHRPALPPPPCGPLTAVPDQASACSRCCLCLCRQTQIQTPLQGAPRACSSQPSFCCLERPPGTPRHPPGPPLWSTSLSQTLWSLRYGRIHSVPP
Experimental: Striatal tissue from adult rats (Sprague-Dawley, 320-370 g, B & K Sweden) were dissected out, weighed and homogenized in buffer containing 50 mM Tris-HCl, 4 mM MgCl2, 1 mM EDTA, 10 μM pargyline and protease inhibitor (Complete, Roche Diagnostics) pH 7.4 using an Ultra-Turrax T8 (IKA Labortechnik, Germany). The tissue homogenate was centrifuged at 48 000×g for 10 min and the pellet was resuspended and recentrifuged as above. The final membranes were diluted in buffer to a concentration of 60 mg original wet weight (w.w.) per ml and stored in aliquots at −70° C.
Non-specific binding was determined in the presence of 10 μM methiothepin. In the competition experiments 0.8-2 mg w.w. per tube and a radioligand concentration of 0.5-1 nM were used with 7 concentrations of the competing drug pre-dissolved in DMSO and diluted in buffer. The assays were incubated for 1-3 hours at room temperature, and terminated by rapid filtration through Whatman GF/B filters pretreated with 0.3% polyethyleneimine using a Brandel cell harvester. The radioactivity was determined in a Packard Tri-Carb 2900TR liquid scintillation counter. Data were analyzed by non-linear regression analyses using PRISM 4.00 (GraphPad Software Inc., San Diego, Calif.).

Consider `COc1ccc(Cl)cc1NS(=O)(=O)c1ccc(OC)c2c1CC[C@H](N(C)C)C2` [Example 1, (6S)—N-(5-Chloro-2-methoxyphenyl)-6-(dimethylamino)-4-methoxy-5,6,7,8-tetrahydronaphthalene-1-sulfonamide], for which the Ki turned out to be 1.7 ± 0.6 nM. Take `COc1ccc(S(=O)(=O)Nc2ccccn2)c2c1C[C@@H](N(C)C)CC2` [Example 18, (6S)-6-(Dimethylamino)-4-methoxy-N-pyridin-2-yl-5,6,7,8-tetrahydronaphthalene-1-sulfonamide]: the Ki turned out to be 17 ± 5 nM.

For the molecule `COc1ccc(S(=O)(=O)N2CCc3ccccc3C2)c2c1C[C@@H](N(C)C)CC2` [Example 21, [5-(3,4-Dihydro-1H-isoquinoline-2-sulfonyl)-8-methoxy-1,2,3,4-tetrahydro-naphthalen-2-yl]-dimethyl-amine], the affinity, expressed as Ki, was 4.2 ± 1.4 nM. Against the preceding molecule, the Ki is about 4-fold lower.

Molecule `CN[C@H]1CCc2c(S(=O)(=O)Nc3ccc(Cl)cc3)ccc(OC)c2C1` [Example 25, (6S)—N-(4-chlorophenyl)-4-methoxy-6-(methylamino)-5,6,7,8-tetrahydronaphthalene-1-sulfonamide] yielded an inhibition constant Ki of 12 ± 4.2 nM. For the molecule `COc1ccc(Cl)cc1NS(=O)(=O)c1ccc(OC)c2c1OC[C@H](N(C)C)C2` [Example 60, (3R)—N-(5-Chloro-2-methoxyphenyl)-3-(dimethylamino)-5-methoxychromane-8-sulfonamide], the Ki came out at 2.3 ± 1.3 nM.

With `COc1ccc(S(=O)(=O)Nc2cc(Cl)cc(Cl)c2)c2c1C[C@@H](N1CCCC1)CO2` [Example 69, (3R)—N-(3,5-Dichlorophenyl)-5-methoxy-3-pyrrolidin-1-ylchromane-8-sulfonamide], the affinity, expressed as Ki, was 27 ± 16 nM. For the molecule `CN[C@H]1COc2c(S(=O)(=O)Nc3ccccc3)ccc(OC)c2C1` [Example 71, (3R)-5-Methoxy-3-(methylamino)-N-phenylchromane-8-sulfonamide], the Ki turned out to be 30 ± 7 nM. `CCc1ccc(S(=O)(=O)Nc2ccc(F)c(Cl)c2)c2c1C[C@@H](N(C)C)CO2` [Example 72, (3R)—N-(3-Chloro-4-fluorophenyl)-3-(dimethylamino)-5-ethylchromane-8-sulfonamide] showed a Ki of 290 ± 50 nM.
